# Assays:
# [1] = Size of drug delivery conjugates in aqueous solution (Zetasizer Nano S); assay type: physicochemical; settings: diameter in aqueous solution
# Description: (§1) To measure the sizes and surface charges of the drug delivery conjugates prepared by the method of Example 1, the surface charges and sizes of the drug delivery conjugates in an aqueous solution were measured using a surface charge measurement system (Zetasizer Nano Z) and a size measurement system (Zetasizer Nano S).
# [2] = Surface charge in aqueous solution (Zetasizer Nano Z); assay type: physicochemical
# Description: as §1
smiles,measurement,setting,value
"CC(=O)O[C@H]1C(=O)[C@@]2(C)[C@H]([C@H](OC(=O)c3ccccc3)[C@]3(O)C[C@H](OC(=O)[C@H](O)[C@@H](NC(=O)c4ccccc4)c4ccccc4)C(C)=C1C3(C)C)[C@]1(OC(C)=O)CO[C@@H]1C[C@@H]2O [PTX, paclitaxel]","Size (d, nm)",[1],806.4 ± 235.9 nm
same,Zeta potential (mV),[2],−39.2 ± 1.50 mV
